The compounds below were run against human adenosine A2b receptor (Homo sapiens (Human), UniProt P29275) (assay: Cellular in vitro reporter gene test for A2b receptor activity (CHO-K1, CRE-luciferase, NECA stimulation)). Details: recombinant CHO-K1 cell line, CRE-luciferase reporter, antagonism of EC50 concentration of NECA; in some cases means of several determinations, rounded to two significant figures; read-out: A2b receptor IC50.
Assay type: cell-based
In short: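 CHO-K1 cells with CRE-driven luciferase; antagonists co-incubated with NECA at its EC50, determined in a pre-experiment on each test day. Luciferase read by luminescence 3 h after NECA addition.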

Chain of human adenosine A2b receptor (P29275 whole entry): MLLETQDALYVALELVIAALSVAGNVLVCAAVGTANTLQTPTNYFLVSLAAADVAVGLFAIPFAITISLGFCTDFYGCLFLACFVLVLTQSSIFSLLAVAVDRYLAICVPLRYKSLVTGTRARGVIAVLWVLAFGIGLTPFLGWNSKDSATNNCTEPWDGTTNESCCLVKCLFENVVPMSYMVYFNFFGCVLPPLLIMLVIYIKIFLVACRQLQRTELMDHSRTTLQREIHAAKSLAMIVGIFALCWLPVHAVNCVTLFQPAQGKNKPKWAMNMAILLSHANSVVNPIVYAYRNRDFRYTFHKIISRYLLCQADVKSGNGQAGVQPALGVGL

SMILES | IC50
COC(=O)N=C1NCCN1Cc1sc2c(c1C)c(=O)n(CC(F)(F)F)c(=O)n2CC1CCCO1 (single isomer, unassigned) [Example 468, Methyl [1-{[5-methyl-2,4-dioxo-1-(tetrahydrofuran-2-ylmethyl)-3-(2,2,2-trifluoroethyl)-1,2,3,4-tetrahydrothieno[2,3-d]pyrimidin-6-yl]methyl}imidazolidin-2-ylidene]carbamate] | 6.1 nM
Cc1c(CN2CCNC2=S)sc2c1c(=O)n(CC(F)F)c(=O)n2CC1COC1 [Example 165, 3-(2,2-Difluoroethyl)-5-methyl-1-(oxetan-3-ylmethyl)-6-[(2-thioxoimidazolidin-1-yl)methyl]thieno[2,3-d]pyrimidine-2,4(1H,3H)-dione] | 6.5 nM
CCn1c(=O)c2c(C)c(CN3CCNC3=O)sc2n(CC2CCCCO2)c1=O (racemic) [Example 71, 3-Ethyl-5-methyl-6-[(2-oxoimidazolidin-1-yl)methyl]-1-(tetrahydro-2H-pyran-2-ylmethyl)thieno[2,3-d]pyrimidine-2,4(1H,3H)-dione (racemate)] | 70 nM
[2H]C([2H])(c1sc2c(c1C)c(=O)n(C(C)C)c(=O)n2CCOC)N1CCNC1=NC#N [Example 512, [1-{[3-Isopropyl-1-(2-methoxyethyl)-5-methyl-2,4-dioxo-1,2,3,4-tetrahydrothieno[2,3-d]pyrimidin-6-yl](dideutero)methyl}imidazolidin-2-ylidene]cyanamide] | 5.1 nM
Cc1c(CN2CCNC2=S)sc2c1c(=O)n(CC(F)F)c(=O)n2CC1CCCO1 (racemic) [Example 162, 3-(2,2-Difluoroethyl)-5-methyl-1-(tetrahydrofuran-2-ylmethyl)-6-[(2-thioxoimidazolidin-1-yl)methyl]thieno[2,3-d]pyrimidine-2,4(1H,3H)-dione] | 7.9 nM
CCn1c(=O)c2c(C)c(CN3CCNC3=NC(=O)OC)sc2n(CC2CCCO2)c1=O (single isomer, unassigned) [Example 375, Methyl [1-{[3-ethyl-5-methyl-2,4-dioxo-1-(tetrahydrofuran-2-ylmethyl)-1,2,3,4-tetrahydrothieno[2,3-d]pyrimidin-6-yl]methyl}imidazolidin-2-ylidene]carbamate] | 6.3 nM
CCn1c(=O)c2c(C)c(CN3CCNC3=O)sc2n(CC2CCCCO2)c1=O (single isomer, unassigned) [Example 180, 3-Ethyl-5-methyl-6-[(2-oxoimidazolidin-1-yl)methyl]-1-(tetrahydro-2H-pyran-2-ylmethyl)thieno[2,3-d]pyrimidine-2,4(1H,3H)-dione] | 30 nM
Cc1c(CN2CCNC2=O)sc2c1c(=O)n(CC(C)(C)C)c(=O)n2CC1CCCO1 (racemic) [Example 406, 3-(2,2-Dimethylpropyl)-5-methyl-6-[(2-oxoimidazolidin-1-yl)methyl]-1-(tetrahydrofuran-2-ylmethyl)thieno[2,3-d]pyrimidine-2,4(1H,3H)-dione] | 29 nM
COCCn1c(=O)n(CCc2ccccc2)c(=O)c2c(C(F)(F)F)c(CN3CCCC3=O)sc21 [Example 5, 1-(2-Methoxyethyl)-6-[(2-oxopyrrolidin-1-yl)methyl]-3-(2-phenylethyl)-5-(trifluoromethyl)thieno[2,3-d]pyrimidine-2,4(1H,3H)-dione] | 8.4 nM
Cc1c(CN2CCNC2=S)sc2c1c(=O)n(CC(F)(F)F)c(=O)n2CC1CCCO1 (racemic) [Example 157, 5-Methyl-1-(tetrahydrofuran-2-ylmethyl)-6-[(2-thioxoimidazolidin-1-yl)methyl]-3-(2,2,2-trifluoroethyl)thieno[2,3-d]pyrimidine-2,4(1H,3H)-dione] | 5.7 nM
COCCn1c(=O)n(CCc2ccccc2)c(=O)c2c(C(F)(F)F)c(CN3CCN(C)C3=O)sc21 [Example 105, 1-(2-Methoxyethyl)-6-[(3-methyl-2-oxoimidazolidin-1-yl)methyl]-3-(2-phenylethyl)-5-(trifluoromethyl)thieno[2,3-d]pyrimidine-2,4(1H,3H)-dione] | 14 nM
Cc1c(Cn2[nH]ccc2=O)sc2c1c(=O)n(CC(F)(F)F)c(=O)n2CC1CCCO1 (single isomer, unassigned) [Example 285, 5-Methyl-6-[(5-oxo-2,5-dihydro-1H-pyrazol-1-yl)methyl]-1-(tetrahydrofuran-2-ylmethyl)-3-(2,2,2-trifluoroethyl)thieno[2,3-d]pyrimidine-2,4(1H,3H)-dione] | 91 nM
COCCn1c(=O)c2c(C)c(CN3CCNC(=O)C3=O)sc2n(CC2CCO2)c1=O (single isomer, unassigned) [Example 401, 6-[(2,3-Dioxopiperazin-1-yl)methyl]-3-(2-methoxyethyl)-5-methyl-1-(oxetan-2-ylmethyl)thieno[2,3-d]pyrimidine-2,4(1H,3H)-dione] | 660 nM
COC(=O)N=C1NCCN1Cc1sc2c(c1C)c(=O)n(CC(C)(C)C)c(=O)n2CC1CCCO1 (racemic) [Example 463, Methyl [1-{[3-(2,2-dimethylpropyl)-5-methyl-2,4-dioxo-1-(tetrahydrofuran-2-ylmethyl)-1,2,3,4-tetrahydrothieno[2,3-d]pyrimidin-6-yl]methyl}imidazolidin-2-ylidene]carbamate] | 9.9 nM

Further lines, results first:

IC50 | SMILES
2.9 nM | Cc1c(CN2CCNC2=O)sc2c1c(=O)n(CC(C)(C)C)c(=O)n2CCC(F)(F)F [Example 200, 3-(2,2-Dimethylpropyl)-5-methyl-6-[(2-oxoimidazolidin-1-yl)methyl]-1-(3,3,3-trifluoropropyl)thieno[2,3-d]pyrimidine-2,4(1H,3H)-dione]
72 nM | CCn1c(=O)c2c(C)c(CN3CCNC3=O)sc2n(CC(C)OC)c1=O (racemic) [Example 62, 3-Ethyl-1-(2-methoxypropyl)-5-methyl-6-[(2-oxoimidazolidin-1-yl)methyl]thieno[2,3-d]pyrimidine-2,4(1H,3H)-dione (racemate)]
1.2 nM | COCCn1c(=O)c2c(C)c(CN3CCNC3=S)sc2n(CCC(F)(F)F)c1=O [Example 167, 3-(2-Methoxyethyl)-5-methyl-6-[(2-thioxoimidazolidin-1-yl)methyl]-1-(3,3,3-trifluoropropyl)thieno[2,3-d]pyrimidine-2,4(1H,3H)-dione]
4.7 nM | COCCn1c(=O)c2c(C)c(CN3CCNC3=NC(=O)OC)sc2n(CCC(F)(F)F)c1=O [Example 385, Methyl [1-{[3-(2-methoxyethyl)-5-methyl-2,4-dioxo-1-(3,3,3-trifluoropropyl)-1,2,3,4-tetrahydrothieno[2,3-d]pyrimidin-6-yl]methyl}imidazolidin-2-ylidene]carbamate]
8.1 nM | CCn1c(=O)c2c(C)c(CN3CCNC3=O)sc2n(CF)c1=O [Example 307, 3-Ethyl-1-(fluoromethyl)-5-methyl-6-[(2-oxoimidazolidin-1-yl)methyl]thieno[2,3-d]pyrimidine-2,4(1H,3H)-dione]
7.8 nM | COCCn1c(=O)n(CC(C)(C)C)c(=O)c2c(C)c(CN3CCNC3=O)sc21 [Example 202, 3-(2,2-Dimethylpropyl)-1-(2-methoxyethyl)-5-methyl-6-[(2-oxoimidazolidin-1-yl)methyl]thieno[2,3-d]pyrimidine-2,4(1H,3H)-dione]
10 nM | CCn1c(=O)c2c(C)c(CN3CCNC3=S)sc2n(CC(F)F)c1=O [Example 137, 1-(2,2-Difluoroethyl)-3-ethyl-5-methyl-6-[(2-thioxoimidazolidin-1-yl)methyl]thieno[2,3-d]pyrimidine-2,4(1H,3H)-dione]
14 nM | C=C(Cn1c(=O)n(CC)c(=O)c2c(C)c(CN3CCNC3=O)sc21)C(F)(F)F [Example 53, 3-Ethyl-5-methyl-6-[(2-oxoimidazolidin-1-yl)methyl]-1-[2-(trifluoromethyl)prop-2-en-1-yl]thieno[2,3-d]pyrimidine-2,4(1H,3H)-dione]
2.3 nM | Cc1c(CN2CCNC2=O)sc2c1c(=O)n(CC(C)C)c(=O)n2CCC(F)(F)F [Example 87, 3-Isobutyl-5-methyl-6-[(2-oxoimidazolidin-1-yl)methyl]-1-(3,3,3-trifluoropropyl)thieno[2,3-d]pyrimidine-2,4(1H,3H)-dione]
1.2 nM | CCn1c(=O)c2c(C)c(Cn3cc[nH]c3=O)sc2n(CCC(F)(F)F)c1=O [Example 241, 3-Ethyl-5-methyl-6-[(2-oxo-2,3-dihydro-1H-imidazol-1-yl)methyl]-1-(3,3,3-trifluoropropyl)thieno[2,3-d]pyrimidine-2,4(1H,3H)-dione]
4.4 nM | COC(C)(C)Cn1c(=O)c2c(C)c(CN3CCNC3=S)sc2n(CCC(F)(F)F)c1=O [Example 170, 3-(2-Methoxy-2-methylpropyl)-5-methyl-6-[(2-thioxoimidazolidin-1-yl)methyl]-1-(3,3,3-trifluoropropyl)thieno[2,3-d]pyrimidine-2,4(1H,3H)-dione]
2.9 nM | Cc1c(CN2CCNC2=S)sc2c1c(=O)n(CC(F)F)c(=O)n2CCC(F)(F)F [Example 160, 3-(2,2-Difluoroethyl)-5-methyl-6-[(2-thioxoimidazolidin-1-yl)methyl]-1-(3,3,3-trifluoropropyl)thieno[2,3-d]pyrimidine-2,4(1H,3H)-dione]
23 nM | COC(C)Cn1c(=O)c2c(C)c(Cn3nc[nH]c3=O)sc2n(CCC(F)(F)F)c1=O (racemic) [Example 440, 3-(2-Methoxypropyl)-5-methyl-6-[(5-oxo-4,5-dihydro-1H-1,2,4-triazol-1-yl)methyl]-1-(3,3,3-trifluoropropyl)thieno[2,3-d]pyrimidine-2,4(1H,3H)-dione]
120 nM | COC(C)(C)Cn1c(=O)c2c(C)c(CN3CCN(C)C3=O)sc2n(CCC(F)(F)F)c1=O [Example 338, 3-(2-Methoxy-2-methylpropyl)-5-methyl-6-[(3-methyl-2-oxoimidazolidin-1-yl)methyl]-1-(3,3,3-trifluoropropyl)thieno[2,3-d]pyrimidine-2,4(1H,3H)-dione]
79 nM | CCn1c(=O)c2c(C)c(C(C)N3CCNC3=O)sc2n(CCC(F)(F)F)c1=O (racemic) [Example 416, 3-Ethyl-5-methyl-6-[1-(2-oxoimidazolidin-1-yl)ethyl]-1-(3,3,3-trifluoropropyl)thieno[2,3-d]pyrimidine-2,4(1H,3H)-dione]
